Bridge positions count the residues as written; N and C are the ends. Square brackets hold non-standard residues; d marks the D form. Peptide text beside a SMILES is read from it. NMeR = CN[C@@H](CCCNC(=N)N)C(=O)O; Pen = CC(C)(S)[C@H](N)C(=O)O
Experiment: Simulated Intestinal Fluid (SIF) Stability Assay
Type: in vitro ADME
Details: for stability in simulated intestinal fluids (SIF): Cys substituted with Pen, compared to SEQ ID NO: 46 with Cys
Method: Simulated Intestinal Fluid (SIF) Stability Assay
Studies were carried out in simulated intestinal fluid (SIF) to evaluate gastric stability of the peptide molecules of the instant invention. SIF was prepared by adding 6.8 g of monobasic potassium phosphate and 10.0 g of pancreatin to 1.0 L of water. After dissolution, the pH was adjusted to 6.8 using NaOH. DMSO stocks (2 mM) were first prepared for the test compounds. Aliquots of the DMSO solutions were dosed into 6 individual tubes, each containing 0.5 mL of SIF, which had been pre-warmed to 37° C.
The final test compound concentration was 20 μM. The vials were kept in a benchtop Thermomixer® for the duration of the experiment. At each time point (0, 5, 10, 20, 40, and 60 minutes), 1.0 mL of acetonitrile containing 1% formic acid was added to one vial to terminate the reaction. Samples were stored at 4° C. until the end of the experiment. After the final timepoint was sampled, the tubes were mixed and then centrifuged at 3,000 rpm for 10 minutes. Aliquots of the supernatant were removed, diluted 1:1 into distilled water containing internal standard, and analyzed by LCMS/MS. Percent remaining at each time point was calculated based on the peak area response ratio of test to compound to internal standard. Time 0 was set to 100%, and all later time points were calculated relative to time 0. Half-lives were calculated by fitting to a first-order exponential decay equation using GraphPad. A small sampling of the results of these studies is provided and discussed in connection FIG. 3, above.

CC(=O)N[C@H]1CSSC(C)(C)[C@@H](C(=O)N[C@@H](CCC(=O)O)C(=O)N[C@H](CCCCN)C(N)=O)NC(=O)[C@H](CC(C)C)NC(=O)[C@H]([C@@H](C)O)NC(=O)[C@H](CC(=O)O)NC(=O)[C@H](CO)NC(=O)[C@H](CCCNC(=N)N)N(C)C1=O [SEQ ID NO: 74] (Ac-C[NMeR]SDTL[Pen]E[dK]-NH2; disulfide 1-7)
stability in simulated intestinal fluids (SIF): increased stability significantly

CC(=O)N[C@H]1CSSC(C)(C)[C@@H](C(=O)N[C@H](CCCCN)C(N)=O)NC(=O)[C@H](CC(C)C)NC(=O)[C@H]([C@@H](C)O)NC(=O)[C@H](CC(=O)O)NC(=O)[C@H](CO)NC(=O)[C@H](CCCNC(=N)N)N(C)C1=O [SEQ ID NO: 55] (Ac-C[NMeR]SDTL[Pen][dK]-NH2; disulfide 1-7)
stability in simulated intestinal fluids (SIF): increased stability significantly

CC(=O)N[C@H]1CSSC[C@@H](C(N)=O)NC(=O)[C@H](CC(C)C)NC(=O)[C@H]([C@@H](C)O)NC(=O)[C@H](CC(=O)O)NC(=O)[C@H](CO)NC(=O)[C@H](CCCNC(=N)N)N(C)C1=O [SEQ ID NO: 46] (Ac-C[NMeR]SDTLC-NH2; disulfide 1-7)
half-life in SIF (simulated intestinal fluid, pH 6.8, 37° C., N-Me-Arg substituted versus non-methylated variation): increased half-life substantially

CC(=O)N[C@@H]1C(=O)N(C)[C@@H](CCCNC(=N)N)C(=O)N[C@@H](CO)C(=O)N[C@@H](CC(=O)O)C(=O)N[C@@H]([C@@H](C)O)C(=O)N[C@@H](CC(C)C)C(=O)N[C@H](C(=O)N[C@H](CCCCN)C(N)=O)C(C)(C)SSC1(C)C [SEQ ID NO: 93] (Ac-[Pen][NMeR]SDTL[Pen][dK]-NH2; disulfide 1-7)
stability in simulated intestinal fluids (SIF): increased stability significantly

Source: patent US20200017549A1, “NOVEL a4B7 PEPTIDE ANTAGONISTS” (Protagonist Therapeutics, Inc., priority 2013, published 2020)
